Test results as given in patent US8822526B2, “Synergistic pharmaceutical combination for the treatment of cancer” (Piramal Enterprises Limited, priority 2007, dated 2014).
Values joined by “and” are separate entries in the source; they are usually repeats but may differ in a detail not shown here. Equal entries are not always repeated. Where two headings read alike, the source gives them in different places.

How the values were obtained:
[1] = tested on: human non-small cell lung carcinoma H-460 cells; experiment: In vitro cytotoxicity assay (MTS)
Experimental: The cytotoxicity assay used was MTS (3-(4,5-dimethylthiazol-2-yl)-5-(3-carboxymethoxyphenyl)-2-(4-sulfophenyl)-2H-tetrazolium, inner salt) assay. The human non-small cell lung carcinoma H-460 cells were seeded at a density of 1500 cells/well in 180 μL of culture medium in 96-well plate and incubated overnight to allow the cells to adhere. Varying concentrations of the drugs contained in the combination were added to the wells and incubated for an appropriate period of time in humidified 5% CO2 incubator at 37° C. in case of a single drug exposure. […] Control wells were treated with a vehicle. At the end of the incubation period, the medium was removed from the wells and 20 μL of MTS (2 mg/mL in phosphate buffer saline, pH 6-6.5 and filter sterilized) and 1 μL of phenazine methosulfate (PMS, 3 mM in phosphate buffered saline, pH 7.3 and filter sterilized) was added to each well and the total volume was adjusted to 200 μL with complete medium. The plate was incubated for 2-4 hours in humidified 5% CO2 incubator at 37° C.
(§1) After completion of the drugs treatment i.e. at the end of 96 hours the plates were processed for MTS viability assay and the percent cytotoxicity was calculated as compared to control.
as §1
(§2) The human non-small cell lung carcinoma H-460 cells were seeded at a density of 1500 cells/well. […] After completion of the drugs treatment i.e. at the end of 120 hours the plates were processed for MTS viability assay and the percent cytotoxicity was calculated as compared to control.
as §2
The human non-small cell lung carcinoma H-460 cells were seeded at a density of 1500 cells/well. […] After completion of the drugs treatment i.e. at the end of 120 hours, the plates were processed for MTS viability assay and the percent cytotoxicity was calculated as compared to control.
(§3) After completion of the drugs treatment i.e. at the end of 48 hours the plates were processed for MTS viability assay and the percent cytotoxicity was calculated as compared to control.
The plates were processed for MTS viability assay and the percent cytotoxicity was calculated as compared to control.
as §3
The human non-small cell lung carcinoma H-460 cells were seeded at a density of 1500 cells/well. As per Table 16A the cells were first treated with either of the drugs alone i.e. with doxorubicin or flavopiridol alone. Doxorubicin treatment was for the first 24 hours followed by complete medium for 96 hours while in case of flavopiridol, the first 24 hours was in complete medium followed by flavopiridol for the next 96 hours. […] After completion of the drugs treatment i.e. at the end of 120 hours the plates were processed for MTS viability assay and the percent cytotoxicity was calculated as compared to control.
As per Table 16B the cells were first treated with either of the drugs alone i.e. with doxorubicin or flavopiridol alone. Flavopiridol treatment was for the first 96 hours followed by complete medium for 24 hours while in case of doxorubicin, the first 96 hours was in complete medium followed by doxorubicin for 24 hours. […] After completion of the drugs treatment i.e. at the end of 120 hours, the plates were processed for MTS viability assay and the percent cytotoxicity was calculated as compared to control.
The human non-small cell lung carcinoma H-460 cells were seeded at a density of 1500 cells/well.

[2] = tested on: human pancreatic (Panc-1) cell line; experiment: In vitro cytotoxicity assay (MTS); type: cell-based
[3] = tested on: pancreatic cells (Panc-1); experiment: Analysis of cell cycle distribution and flow cytometry (sub G1 apoptosis); type: cell-based, human; conditions: FIG. 3: 70 nM gemcitabine alone (24 hours); 300 nM compound A alone (72 hours); combination 70 nM gemcitabine (24 hours) followed by 300 nM compound A (72 hours)
NCI-H460/R = conditions: J. Chemother., 2006 February; 18(1) 66-73; cited from earlier work

CN1CC[C@@H](c2c(O)cc(O)c3c(=O)cc(-c4ccccc4Cl)oc23)[C@@H]1CO.Cl [Compound A, (+)-trans-2-(2-Chloro-phenyl)-5,7-dihydroxy-8-(2-hydroxymethyl-1-methyl-pyrrolidin-3-yl)-chromen-4-one hydrochloride]
IC30 concentration after 48 hours treatment ([1]; H-460 cells, 48 hours treatment, hydrochloride): 800 nM and ~700 nM | IC50 ([1]; Homo sapiens, NCI-H460, 48 h, read-out: IC50 concentration after 48 hours treatment, H-460 cells, 48 hours treatment): 1200 nM | cytotoxicity at 0.8 µM ([1]; Homo sapiens, NCI-H460, 120 h, compound A 800 nM alone for 120 hours): 24% | cytotoxicity at 1.2 µM ([1]; Homo sapiens, NCI-H460, 120 h, compound A 1200 nM alone for 120 hours): 44% | % Cytotoxicity ([1]; human, 45 h, 1000 nM): 35% | % Cytotoxicity ([1]; human, 72 h, 800 nM): 17% | % Cytotoxicity ([1]; human, 72 h, 1200 nM): 36% | % Cytotoxicity ([1]; human, 96 h, 800 nM): 19% | IC50 ([1]; read-out: IC50 concentration after 48 hours treatment, H-460 cells, 48 hours treatment, hydrochloride): ~1000 nM | IC30 concentration after 48 hours treatment ([2]; Panc-1 cells, 48 hours treatment): ~300 nM | % Cytotoxicity ([2]; complete medium 24 hours, then compound A 300 nM 72 hours): 34% | apoptosis (sub G1 phase) [3]: 4.3%

COc1cccc2c1C(=O)c1c(O)c3c(c(O)c1C2=O)C[C@@](O)(C(=O)CO)C[C@@H]3O[C@H]1C[C@H](N)[C@H](O)[C@H](C)O1 [Doxorubicin]
% Cytotoxicity ([1]; Doxorubicin 30 nM alone for 120 hours): 2% | % Cytotoxicity ([1]; Doxorubicin 30 nM first 24 hours, then complete medium 96 hours, MTS at 120 hours): 0% | % Cytotoxicity ([1]; Doxorubicin 70 nM first 24 hours, then complete medium 96 hours, MTS at 120 hours): 14% and 12% | % Cytotoxicity ([1]; Doxorubicin 100 nM alone for 120 hours): 24% | % Cytotoxicity ([1]; Doxorubicin 100 nM first 24 hours, then complete medium 72 hours, MTS at 96 hours): 16% | % Cytotoxicity ([1]; Doxorubicin 100 nM first 24 hours, then complete medium 96 hours, MTS at 120 hours): 8% | % Cytotoxicity ([1]; Doxorubicin 100 nM first 24 hours, then complete medium 96 hours, MTS at 120 hours, listed as Doxo.): 16% and 9% | % Cytotoxicity ([1]; Doxorubicin 200 nM first 24 hours, then complete medium 96 hours, MTS at 120 hours): 17% | cytotoxicity at 0.03 µM ([1]; Homo sapiens, NCI-H460, 120 h, Doxorubicin 30 nM alone for 120 hours): 3% | cytotoxicity at 0.07 µM ([1]; Homo sapiens, NCI-H460, 120 h, Doxorubicin 70 nM alone for 120 hours): 28% | cytotoxicity at 0.1 µM ([1]; Homo sapiens, NCI-H460, 120 h, Doxorubicin 100 nM alone for 120 hours): 19% | cytotoxicity at 0.2 µM ([1]; Homo sapiens, NCI-H460, 120 h, Doxorubicin 200 nM alone for 120 hours): 48% | resistance of NCI-H460/R to doxorubicin (NCI-H460/R): 96.2 fold
